In patent publication US20220235064A1 (WELLMARKER BIO CO., LTD., priority 2019, published 2022) one finds cytotoxicity and IC50 data, which are given here for 20 molecules.

The subject of experiment [1] is cancer cell line KM12C, in which RON is activated. The experiment can be described thus: Cell-killing efficacy in RON-activated cancer cell line (trypan blue). It is filed as cell-based. Particulars: Homo sapiens, 48 hours, trypan blue, n=2, read-out: Cell death (%) Cancer cell line KM12C. The method in brief:
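KM12C cells seeded 1×10^5 per 60 mm^2 dish in MEM + 10% FBS, then exposed 24 h later to compound at 1 μM or 5 μM for 48 h.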

Experiment [2] has the same test system. Description: Cell growth inhibitory ability in RON-activated cancer cell line (MTS). It counts as cell-based. Conditions: Homo sapiens, 48 hours, absorbance 490 nm. Put shortly: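 KM12C cells (RON-activated, MEM with FBS) exposed to compound […] for 48 h. MTS added 24 h after treatment ended, incubated 4 h at 37° C, absorbance read at 490 nm. IC50 derived from absorbance.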

Another experiment deals with T1, RON tyrosine kinase (Homo sapiens, UniProt Q04912).
T1 construct: purchased Carna Bioscience
Description: Enzyme inhibitory activity against RON tyrosine kinase (TR-FRET). It counts as biochemical. Particulars: RON (Carna Bioscience). Put shortly:
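Recombinant RON was preincubated with compound for 15 min at RT in 50 mM HEPES pH 7.5, 10 mM MgCl2, 1 mM EGTA, 2 mM DTT, 0.01% Tween-20. Enzyme (0.4 nM), ATP (60 μM) and tyrosine peptide (400 nM) were prepared at 2×, 4× and 4× final. After 60 min at RT, EDTA/Eu-anti-phosphotyrosine stop; IC50 from 665 nm TR-FRET emission.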
(In general: TR-FRET usually uses a lanthanide donor and a delayed reading to cut background.)

Structures can show the parent of a compound that is named as a salt.

T1 sequence (Q04912 25-1400): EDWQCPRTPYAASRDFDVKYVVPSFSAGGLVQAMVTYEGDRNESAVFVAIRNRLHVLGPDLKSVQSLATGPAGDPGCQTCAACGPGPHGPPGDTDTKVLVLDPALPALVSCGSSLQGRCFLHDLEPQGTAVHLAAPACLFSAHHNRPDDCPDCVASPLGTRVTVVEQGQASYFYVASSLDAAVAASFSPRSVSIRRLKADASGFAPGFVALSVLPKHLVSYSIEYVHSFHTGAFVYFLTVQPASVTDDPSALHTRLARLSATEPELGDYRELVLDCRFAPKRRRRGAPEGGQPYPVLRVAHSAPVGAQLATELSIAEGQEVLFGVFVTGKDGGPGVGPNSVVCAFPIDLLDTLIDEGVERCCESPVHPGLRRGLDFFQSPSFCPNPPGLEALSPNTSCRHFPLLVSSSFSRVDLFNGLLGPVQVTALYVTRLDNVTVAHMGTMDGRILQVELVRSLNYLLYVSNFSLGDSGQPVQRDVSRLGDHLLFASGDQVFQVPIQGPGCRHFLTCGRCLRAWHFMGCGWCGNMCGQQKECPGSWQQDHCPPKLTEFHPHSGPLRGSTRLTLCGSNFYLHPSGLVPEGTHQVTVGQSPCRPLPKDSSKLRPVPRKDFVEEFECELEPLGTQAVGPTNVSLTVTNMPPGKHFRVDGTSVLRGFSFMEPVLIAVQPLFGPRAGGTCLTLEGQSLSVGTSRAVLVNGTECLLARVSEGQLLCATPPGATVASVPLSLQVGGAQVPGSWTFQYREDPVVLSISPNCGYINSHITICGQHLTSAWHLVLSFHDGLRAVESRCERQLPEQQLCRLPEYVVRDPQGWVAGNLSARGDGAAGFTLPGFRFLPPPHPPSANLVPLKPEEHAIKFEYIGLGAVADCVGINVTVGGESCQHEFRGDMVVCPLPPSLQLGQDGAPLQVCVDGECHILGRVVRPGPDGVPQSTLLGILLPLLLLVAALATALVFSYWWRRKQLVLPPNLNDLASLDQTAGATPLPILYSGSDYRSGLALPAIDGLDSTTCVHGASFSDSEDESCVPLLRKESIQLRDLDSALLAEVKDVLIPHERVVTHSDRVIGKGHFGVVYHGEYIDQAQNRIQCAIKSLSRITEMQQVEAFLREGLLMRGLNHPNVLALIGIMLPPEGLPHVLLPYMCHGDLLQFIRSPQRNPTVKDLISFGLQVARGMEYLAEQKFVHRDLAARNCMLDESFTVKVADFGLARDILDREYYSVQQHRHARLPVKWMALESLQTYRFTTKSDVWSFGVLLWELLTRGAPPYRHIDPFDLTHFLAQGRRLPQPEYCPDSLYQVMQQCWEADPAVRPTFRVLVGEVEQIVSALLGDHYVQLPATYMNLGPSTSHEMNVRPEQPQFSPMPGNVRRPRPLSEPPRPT

As for `O=C(Nc1ccc(Oc2ccnc3cc(-c4ccccn4)sc23)c(F)c1)c1c2c(cn(-c3ccc(F)cc3)c1=O)CCO2` [Example 3, N-(3-Fluoro-4-((2-(pyridin-2-yl)thieno[3,2-b]pyridin-7-yl)oxy)phenyl)-5-(4-fluorophenyl)-6-oxo-2,3,5,6-tetrahydrofuro[3,2-c]pyridine-7-carboxamide], in experiment [1], the cytotoxicity at 1 µM amounted to 24.6% and the cytotoxicity at 5 µM stood at 34%. Besides, in experiment [2], inhibition was half-maximal at 3 nM (IC50). The molecule further came in with an IC50 at RON tyrosine kinase of 2.39 nM.

As for `O=C(Nc1ccc(Oc2ccnc3cc(-c4ccc(CN5CCOCC5)cn4)sc23)c(F)c1)c1c2c(cn(-c3ccc(F)cc3)c1=O)CCO2` [Example 5, N-(3-Fluoro-4-((2-(5-(morpholinomethyl)pyridin-2-yl)thieno[3,2-b]pyridin-7-yl)oxy)phenyl)-5-(4-fluorophenyl)-6-oxo-2,3,5,6-tetrahydrofuro[3,2-c]pyridine-7-carboxamide hydrochloride], in experiment [1], the cytotoxicity at 1 µM came to 21.2% and the cytotoxicity at 5 µM turned out to be 25.9%. In experiment [2], this molecule displayed an IC50 of 4 nM. Besides, at RON tyrosine kinase, half-maximal inhibition (IC50) required 5.87 nM.

As to `O=C(Nc1ccc(Oc2ccnc3cc(-c4ccc(CN5CCOCC5)cn4)sc23)c(F)c1)c1c2c(cn(-c3ccccc3)c1=O)CCO2` [Example 6, N-(3-Fluoro-4-((2-(5-(morpholinomethyl)pyridin-2-yl)thieno[3,2-b]pyridin-7-yl)oxy)phenyl)-6-oxo-5-phenyl-2,3,5,6-tetrahydrofuro[3,2-c]pyridine-7-carboxamide hydrochloride], in experiment [1], the cytotoxicity at 1 µM is 29.3% and the cytotoxicity at 5 µM was 34.3%. This molecule also gave a half-inhibitory concentration (IC50) in experiment [2] of 2 nM. At RON tyrosine kinase, this molecule showed an IC50 of 1.43 nM.

With `COc1cc2nccc(Oc3ccc(NC(=O)c4c5c(cn(-c6ccccc6)c4=O)CCO5)cc3F)c2cc1OC` [Example 41, N-(4-((6,7-Dimethoxyquinolin-4-yl)oxy)-3-fluorophenyl)-6-oxo-5-phenyl-2,3,5,6-tetrahydrofuro[3,2-c]pyridine-7-carboxamide], the cytotoxicity at 1 µM in experiment [1] was 16%. In addition, the cytotoxicity at 5 µM in experiment [1] is 21.4%. The values for the half-inhibitory concentration (IC50) (in experiment [2]; against RON tyrosine kinase) were 2 nM and 2.86 nM, respectively.

As to `COc1cc2ncnc(Oc3ccc(NC(=O)c4c5c(cn(-c6ccc(F)cc6)c4=O)CCO5)cc3F)c2cc1OC` [Example 46, N-(4-((6,7-Dimethoxyquinazolin-4-yl)oxy)-3-fluorophenyl)-5-(4-fluorophenyl)-6-oxo-2,3,5,6-tetrahydrofuro[3,2-c]pyridine-7-carboxamide], in experiment [1], the cytotoxicity at 1 µM was 23.7% and the cytotoxicity at 5 µM came out at 27.4%. The same molecule gave an IC50 in experiment [2] of 6 nM. For the same molecule, 2.39 nM corresponded to half-maximal inhibition at RON tyrosine kinase (IC50).

As to `COc1cc2nccc(Oc3ccc(NC(=O)c4c5c(cn(-c6ccc(F)cc6)c4=O)CCO5)cc3F)c2cc1C(N)=O` [Example 47, N-(4-((6-Carbamoyl-7-methoxyquinolin-4-yl)oxy)-3-fluorophenyl)-5-(4-fluorophenyl)-6-oxo-2,3,5,6-tetrahydrofuro[3,2-c]pyridine-7-carboxamide], in experiment [1], the cytotoxicity at 1 µM is 18% and the cytotoxicity at 5 µM stood at 30.9%. In experiment [2], the concentration for half-maximal inhibition (IC50) worked out at 2 nM. The molecule also had an IC50 on RON tyrosine kinase of 0.47 nM.

Consider `O=C(Nc1ccc(Oc2ncnc3[nH]ncc23)c(F)c1)c1c2c(cn(-c3ccc(F)cc3)c1=O)CCO2` [Example 73, N-(4-((1H-pyrazolo[3,4-d]pyrimidin-4-yl)oxy)-3-fluorophenyl)-5-(4-fluorophenyl)-6-oxo-2,3,5,6-tetrahydrofuro[3,2-c]pyridine-7-carboxamide], for which the IC50 in experiment [2] was determined as 8 nM; against RON tyrosine kinase, 17.5 nM.

Regarding `COc1cc2c(Oc3ccc(NC(=O)c4c5c(cn(-c6ccc(F)cc6)c4=O)CCC5)cc3F)ccnc2cc1OCCCN1CCOCC1` [Example 77, N-(3-Fluoro-4-((6-methoxy-7-(3-morpholinopropoxy)quinolin-4-yl)oxy)phenyl)-2-(4-fluorophenyl)-3-oxo-3,5,6,7-tetrahydro-2H-cyclopenta[c]pyridine-4-carboxamide], the half-maximal inhibitory concentration (IC50) in experiment [2] is 10 nM; against RON tyrosine kinase it was 9.32 nM.

With `COc1cc2c(Oc3ccc(NC(=O)c4c5c(cn(-c6ccccc6)c4=O)CCO5)cc3F)ccnc2cc1OCCN1CCOCC1` [Example 79, N-(3-Fluoro-4-((6-methoxy-7-(2-morpholinoethoxy)quinolin-4-yl)oxy)phenyl)-6-oxo-5-phenyl-2,3,5,6-tetrahydrofuro[3,2-c]pyridine-7-carboxamide], the IC50 in experiment [2] stood at 1 nM; at RON tyrosine kinase it was 0.78 nM.

Consider `CNC(=O)c1cc2c(Oc3ccc(NC(=O)c4c5c(cn(-c6ccc(F)cc6)c4=O)CCO5)cc3F)ccnc2cc1OCCN1CCOCC1` [Example 163, N-(3-Fluoro-4-((6-(methylcarbamoyl)-7-(2-morpholinoethoxy)quinolin-4-yl)oxy)phenyl)-5-(4-fluorophenyl)-6-oxo-2,3,5,6-tetrahydrofuro[3,2-c]pyridine-7-carboxamide], for which the results for the IC50 (in experiment [2]; at RON tyrosine kinase) were 2 nM and 0.1 nM, respectively.

For the molecule `O=C(Nc1ccc(Oc2ccnc3cc(OCCN4CCOCC4)c(F)cc23)c(F)c1)c1c2c(cn(-c3ccc(F)cc3)c1=O)CCO2` [Example 167, N-(3-Fluoro-4-((6-fluoro-7-(2-morpholinoethoxy)quinolin-4-yl)oxy)phenyl)-5-(4-fluorophenyl)-6-oxo-2,3,5,6-tetrahydrofuro[3,2-c]pyridine-7-carboxamide], the values for the IC50 (in experiment [2]; on RON tyrosine kinase) were 6 nM and 0.83 nM, respectively.

In the case of `O=C(Nc1ccc(Oc2ccnc3cc(OCCCN4CCOCC4)c(F)cc23)c(F)c1)c1c2c(cn(-c3ccc(F)cc3)c1=O)CCO2` [Example 168, N-(3-Fluoro-4-((6-fluoro-7-(3-morpholinopropoxy)quinolin-4-yl)oxy)phenyl)-5-(4-fluorophenyl)-6-oxo-2,3,5,6-tetrahydrofuro[3,2-c]pyridine-7-carboxamide], the IC50 in experiment [2] amounted to 25 nM; at RON tyrosine kinase, 0.45 nM.

Take `O=C(Nc1ccc(Oc2ccnc3cc(OCCN4CCOCC4)c(Cl)cc23)c(F)c1)c1c2c(cn(-c3ccc(F)cc3)c1=O)CCO2` [Example 171, N-(4-((6-Chloro-7-(2-morpholinoethoxy)quinolin-4-yl)oxy)-3-fluorophenyl)-5-(4-fluorophenyl)-6-oxo-2,3,5,6-tetrahydrofuro[3,2-c]pyridine-7-carboxamide]: the IC50 in experiment [2] was 8 nM; at RON tyrosine kinase, 7.13 nM.

With `N#Cc1cc2c(Oc3ccc(NC(=O)c4c5c(cn(-c6ccc(F)cc6)c4=O)CCO5)cc3F)ccnc2cc1OCCN1CCOCC1` [Example 173, N-(4-((6-Cyano-7-(2-morpholinoethoxy)quinolin-4-yl)oxy)-3-fluorophenyl)-5-(4-fluorophenyl)-6-oxo-2,3,5,6-tetrahydrofuro[3,2-c]pyridine-7-carboxamide], the IC50 in experiment [2] stood at 3 nM; on RON tyrosine kinase it was 0.58 nM.

Turning to `N#Cc1cc2c(Oc3ccc(NC(=O)c4c5c(cn(-c6ccc(F)cc6)c4=O)CCO5)cc3F)ccnc2cc1OCCCN1CCOCC1` [Example 174, N-(4-((6-Cyano-7-(3-morpholinopropoxy)quinolin-4-yl)oxy)-3-fluorophenyl)-5-(4-fluorophenyl)-6-oxo-2,3,5,6-tetrahydrofuro[3,2-c]pyridine-7-carboxamide], the concentration for half-maximal inhibition (IC50) was determined as 4 nM in experiment [2] and 1.61 nM at RON tyrosine kinase.

On to `COc1cc2nccc(Oc3ccc(NC(=O)c4c5c(cn(-c6ccc(F)cc6)c4=O)CCO5)cc3F)c2cc1OCCN1CCOCC1` [Example 175, N-(3-Fluoro-4-((7-methoxy-6-(2-morpholinoethoxy)quinolin-4-yl)oxy)phenyl)-5-(4-fluorophenyl)-6-oxo-2,3,5,6-tetrahydrofuro[3,2-c]pyridine-7-carboxamide], for which the values for the half-maximal inhibitory concentration (IC50) (in experiment [2]; against RON tyrosine kinase) were 2 nM and 1.24 nM, respectively.

`O=C(Nc1ccc(Oc2ccnc3ccc(OCCN4CCOCC4)cc23)c(F)c1)c1c2c(cn(-c3ccc(F)cc3)c1=O)CCO2` [Example 177, N-(3-Fluoro-4-((6-(2-morpholinoethoxy)quinolin-4-yl)oxy)phenyl)-5-(4-fluorophenyl)-6-oxo-2,3,5,6-tetrahydrofuro[3,2-c]pyridine-7-carboxamide]: the half-maximal inhibitory concentration (IC50) in experiment [2] was determined as 6 nM; against RON tyrosine kinase it was 0.83 nM.

Turning to `O=C(Nc1ccc(Oc2ccnc3ccc(OCCCN4CCOCC4)cc23)c(F)c1)c1c2c(cn(-c3ccc(F)cc3)c1=O)CCO2` [Example 178, N-(3-Fluoro-4-((6-(3-morpholinopropoxy)quinolin-4-yl)oxy)phenyl)-5-(4-fluorophenyl)-6-oxo-2,3,5,6-tetrahydrofuro[3,2-c]pyridine-7-carboxamide], the values for the half-inhibitory concentration (IC50) (in experiment [2]; against RON tyrosine kinase) were 25 nM and 0.45 nM, respectively.

Regarding `COc1cc2nccc(Oc3ccc(NC(=O)c4c5c(cn(-c6ccc(F)cc6)c4=O)CCO5)cc3F)c2cc1N` [Example 179, N-(4-((6-Amino-7-methoxyquinolin-4-yl)oxy)-3-fluorophenyl)-5-(4-fluorophenyl)-6-oxo-2,3,5,6-tetrahydrofuro[3,2-c]pyridine-7-carboxamide], the concentration for half-maximal inhibition (IC50) was found to be 3 nM in experiment [2] and 0.47 nM on RON tyrosine kinase.

`COc1cc2nccc(Oc3ccc(NC(=O)c4c5c(cn(-c6ccc(F)cc6)c4=O)CCO5)cc3F)c2cc1NCCCN1CCOCC1` [Example 186, N-(3-Fluoro-4-((7-methoxy-6-((3-morpholinopropyl)amino)quinolin-4-yl)oxy)phenyl)-5-(4-fluorophenyl)-6-oxo-2,3,5,6-tetrahydrofuro[3,2-c]pyridine-7-carboxamide]: the half-maximal inhibitory concentration (IC50) came to 3 nM in experiment [2] and 7.52 nM against RON tyrosine kinase.

In general, IC50 refers to the point on the concentration scale where inhibition reaches its midpoint.
